In ChEMBL document CHEMBL4477225, “Development of a cell viability assay to assess drug metabolite structure-toxicity relationships” (Bioorg Med Chem Lett, 2016):

Columns and labels:
Conditions in all cases: recombinant enzyme
[1] = molecular target: T1, Cytochrome P450 2C9 (Homo sapiens, UniProt P11712); experiment: (§1) Drug activation in human Hep3B cells assessed as human CYP2C9-mediated drug metabolism-induced cytotoxicity measured as decrease in cell viability at 39 uM pre-incubated with BSO for 18 hrs followed by incubation with compound for 3 hrs in presence of NADPH measured after 24 hrs in absence of compound, CYP3A4 and NADPH by cell titer-glo luminescence assay relative to BSO alone; format: ADME, cell-based
T1 sequence (P11712 whole entry): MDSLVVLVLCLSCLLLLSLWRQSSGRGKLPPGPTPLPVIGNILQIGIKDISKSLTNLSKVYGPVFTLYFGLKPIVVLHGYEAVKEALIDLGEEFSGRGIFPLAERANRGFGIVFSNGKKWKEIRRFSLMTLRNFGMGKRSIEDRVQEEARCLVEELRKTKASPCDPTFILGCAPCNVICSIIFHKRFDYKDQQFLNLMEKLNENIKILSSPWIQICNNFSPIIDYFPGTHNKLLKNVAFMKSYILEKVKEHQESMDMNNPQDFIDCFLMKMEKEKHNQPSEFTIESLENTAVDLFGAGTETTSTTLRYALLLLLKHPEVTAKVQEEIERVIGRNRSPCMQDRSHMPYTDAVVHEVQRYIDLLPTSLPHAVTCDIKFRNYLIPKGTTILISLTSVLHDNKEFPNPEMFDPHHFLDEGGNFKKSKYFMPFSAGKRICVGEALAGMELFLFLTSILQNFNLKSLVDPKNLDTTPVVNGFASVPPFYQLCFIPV

[2] = molecular target: T2, Cytochrome P450 3A4 (Homo sapiens, UniProt P08684); experiment: as §1, with “CYP3A4-mediated” for “CYP2C9-mediated”, “22.3” for “39”; format: ADME, cell-based
T2 sequence (P08684 whole entry): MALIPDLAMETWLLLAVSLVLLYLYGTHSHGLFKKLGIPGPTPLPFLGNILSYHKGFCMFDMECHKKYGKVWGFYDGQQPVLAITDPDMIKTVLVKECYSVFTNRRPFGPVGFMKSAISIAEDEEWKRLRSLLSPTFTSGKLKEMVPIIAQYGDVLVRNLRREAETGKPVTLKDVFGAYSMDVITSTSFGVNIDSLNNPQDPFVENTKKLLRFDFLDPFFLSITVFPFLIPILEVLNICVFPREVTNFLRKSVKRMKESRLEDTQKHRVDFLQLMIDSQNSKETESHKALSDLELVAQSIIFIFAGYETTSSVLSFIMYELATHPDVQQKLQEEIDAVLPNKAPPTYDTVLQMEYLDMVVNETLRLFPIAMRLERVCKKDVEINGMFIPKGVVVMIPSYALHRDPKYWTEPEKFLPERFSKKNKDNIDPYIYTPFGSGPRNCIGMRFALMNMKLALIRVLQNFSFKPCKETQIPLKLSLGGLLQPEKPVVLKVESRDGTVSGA

[3] = molecular target: T3, Cytochrome P450 2D6 (Homo sapiens, UniProt P10635); experiment: as §1, with “CYP2D6-mediated” for “CYP2C9-mediated”, “17.6” for “39”; format: ADME, cell-based
T3 sequence (P10635 whole entry): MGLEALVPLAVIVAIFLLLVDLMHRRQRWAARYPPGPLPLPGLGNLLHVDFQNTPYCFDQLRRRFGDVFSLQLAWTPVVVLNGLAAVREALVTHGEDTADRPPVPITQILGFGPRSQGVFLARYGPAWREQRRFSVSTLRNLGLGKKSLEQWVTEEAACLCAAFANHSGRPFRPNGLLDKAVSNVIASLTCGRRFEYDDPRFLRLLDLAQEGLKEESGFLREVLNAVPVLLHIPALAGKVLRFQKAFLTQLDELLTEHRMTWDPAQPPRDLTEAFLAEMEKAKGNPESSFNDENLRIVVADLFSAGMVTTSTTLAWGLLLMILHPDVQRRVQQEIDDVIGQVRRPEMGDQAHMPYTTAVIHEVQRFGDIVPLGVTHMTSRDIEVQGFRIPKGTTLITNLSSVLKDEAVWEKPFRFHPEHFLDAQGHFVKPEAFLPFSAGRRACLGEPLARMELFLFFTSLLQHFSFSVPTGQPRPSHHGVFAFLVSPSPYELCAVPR

[4] = molecular target: T3, Cytochrome P450 2D6; experiment: as §1, with “CYP2D6-mediated” for “CYP2C9-mediated”, “44.4” for “39”; format: ADME, cell-based
[5] = molecular target: T1, Cytochrome P450 2C9; experiment: as §1, with “36.8” for “39”; format: ADME, cell-based
[6] = molecular target: T1, Cytochrome P450 2C9; experiment: as §1, with “300” for “39”
[7] = molecular target: T2, Cytochrome P450 3A4; experiment: as §1, with “CYP3A4-mediated” for “CYP2C9-mediated”, “90.1” for “39”; format: ADME, cell-based
[8] = molecular target: T3, Cytochrome P450 2D6; experiment: as §1, with “CYP2D6-mediated” for “CYP2C9-mediated”, “78.6” for “39”; format: ADME, cell-based
[9] = molecular target: T2, Cytochrome P450 3A4; experiment: as §1, with “CYP3A4-mediated” for “CYP2C9-mediated”, “29.6” for “39”; format: ADME, cell-based
[10] = molecular target: T3, Cytochrome P450 2D6; experiment: as §1, with “CYP2D6-mediated” for “CYP2C9-mediated”, “79.2” for “39”; format: ADME, cell-based
[11] = molecular target: T1, Cytochrome P450 2C9; experiment: as §1, with “49.7” for “39”; format: ADME, cell-based
[12] = molecular target: T3, Cytochrome P450 2D6; experiment: as §1, with “CYP2D6-mediated” for “CYP2C9-mediated”, “193.1” for “39”; format: ADME, cell-based
[13] = molecular target: T2, Cytochrome P450 3A4; experiment: as §1, with “CYP3A4-mediated” for “CYP2C9-mediated”, “83.8” for “39”; format: ADME, cell-based
[14] = molecular target: T2, Cytochrome P450 3A4; experiment: as §1, with “CYP3A4-mediated” for “CYP2C9-mediated”, “137.9” for “39”; format: ADME, cell-based
[15] = molecular target: T3, Cytochrome P450 2D6; experiment: as §1, with “CYP2D6-mediated” for “CYP2C9-mediated”, “114.4” for “39”; format: ADME, cell-based
[16] = molecular target: T2, Cytochrome P450 3A4; experiment: as §1, with “CYP3A4-mediated” for “CYP2C9-mediated”, “56.4” for “39”; format: ADME, cell-based
[17] = molecular target: T3, Cytochrome P450 2D6; experiment: as §1, with “CYP2D6-mediated” for “CYP2C9-mediated”, “65.4” for “39”; format: ADME, cell-based
[18] = molecular target: T1, Cytochrome P450 2C9; experiment: as §1, with “9.1” for “39”; format: ADME, cell-based
[19] = molecular target: T3, Cytochrome P450 2D6; experiment: as §1, with “CYP2D6-mediated” for “CYP2C9-mediated”, “13” for “39”; format: ADME, cell-based
[20] = molecular target: T1, Cytochrome P450 2C9; experiment: as §1, with “51.1” for “39”; format: ADME, cell-based
[21] = molecular target: T2, Cytochrome P450 3A4; experiment: as §1, with “CYP3A4-mediated” for “CYP2C9-mediated”, “74.4” for “39”; format: ADME, cell-based
[22] = molecular target: T3, Cytochrome P450 2D6; experiment: as §1, with “CYP2D6-mediated” for “CYP2C9-mediated”, “21.3” for “39”; format: ADME, cell-based
[23] = molecular target: T1, Cytochrome P450 2C9; experiment: as §1, with “139.9” for “39”; format: ADME, cell-based
[24] = molecular target: T2, Cytochrome P450 3A4; experiment: as §1, with “CYP3A4-mediated” for “CYP2C9-mediated”, “131.8” for “39”; format: ADME, cell-based
[25] = molecular target: T3, Cytochrome P450 2D6; experiment: as §1, with “CYP2D6-mediated” for “CYP2C9-mediated”, “132.2” for “39”; format: ADME, cell-based
[26] = molecular target: T2, Cytochrome P450 3A4; experiment: as §1, with “CYP3A4-mediated” for “CYP2C9-mediated”, “150.3” for “39”; format: ADME, cell-based
[27] = molecular target: T3, Cytochrome P450 2D6; experiment: as §1, with “CYP2D6-mediated” for “CYP2C9-mediated”, “7” for “39”; format: ADME, cell-based
[28] = molecular target: T2, Cytochrome P450 3A4; experiment: as §1, with “CYP3A4-mediated” for “CYP2C9-mediated”, “36.8” for “39”; format: ADME, cell-based
[29] = molecular target: T3, Cytochrome P450 2D6; experiment: as §1, with “CYP2D6-mediated” for “CYP2C9-mediated”, “194” for “39”; format: ADME, cell-based
[30] = molecular target: T2, Cytochrome P450 3A4; experiment: as §1, with “CYP3A4-mediated” for “CYP2C9-mediated”, “69.6” for “39”; format: ADME, cell-based
[31] = molecular target: T3, Cytochrome P450 2D6; experiment: as §1, with “CYP2D6-mediated” for “CYP2C9-mediated”, “3.2” for “39”; format: ADME, cell-based
[32] = molecular target: T1, Cytochrome P450 2C9; experiment: as §1, with “12.1” for “39”; format: ADME, cell-based
[33] = molecular target: T2, Cytochrome P450 3A4; experiment: as §1, with “CYP3A4-mediated” for “CYP2C9-mediated”, “39 uM” left out; format: ADME, cell-based
[34] = molecular target: T2, Cytochrome P450 3A4; experiment: as §1, with “CYP3A4-mediated” for “CYP2C9-mediated”, “300” for “39”
[35] = molecular target: T3, Cytochrome P450 2D6; experiment: as §1, with “CYP2D6-mediated” for “CYP2C9-mediated”, “8.9” for “39”; format: ADME, cell-based
[36] = molecular target: T3, Cytochrome P450 2D6; experiment: as §1, with “CYP2D6-mediated” for “CYP2C9-mediated”, “156.7” for “39”; format: ADME, cell-based
[37] = molecular target: T2, Cytochrome P450 3A4; experiment: as §1, with “CYP3A4-mediated” for “CYP2C9-mediated”, “209.7” for “39”; format: ADME, cell-based
[38] = molecular target: T2, Cytochrome P450 3A4; experiment: as §1, with “CYP3A4-mediated” for “CYP2C9-mediated”, “8.7” for “39”; format: ADME, cell-based
[39] = molecular target: T3, Cytochrome P450 2D6; experiment: as §1, with “CYP2D6-mediated” for “CYP2C9-mediated”, “12.9” for “39”; format: ADME, cell-based
[40] = molecular target: T2, Cytochrome P450 3A4; experiment: as §1, with “CYP3A4-mediated” for “CYP2C9-mediated”, “68” for “39”; format: ADME, cell-based
[41] = molecular target: T1, Cytochrome P450 2C9; experiment: as §1, with “70.1” for “39”; format: ADME, cell-based
[42] = molecular target: T3, Cytochrome P450 2D6; experiment: as §1, with “CYP2D6-mediated” for “CYP2C9-mediated”, “80.4” for “39”; format: ADME, cell-based
[43] = molecular target: T3, Cytochrome P450 2D6; experiment: as §1, with “CYP2D6-mediated” for “CYP2C9-mediated”, “264.7” for “39”; format: ADME, cell-based
[44] = molecular target: T3, Cytochrome P450 2D6; experiment: as §1, with “CYP2D6-mediated” for “CYP2C9-mediated”, “139.7” for “39”; format: ADME, cell-based
[45] = molecular target: T2, Cytochrome P450 3A4; experiment: as §1, with “CYP3A4-mediated” for “CYP2C9-mediated”, “242.9” for “39”; format: ADME, cell-based

With `O=C(c1ccccc1)c1ccc2n1CCC2C(=O)O` (stereo unspecified) [KETOROLAC] the “fold change (FC)” value [1] was 0.4, the “fold change (FC)” value [2] was 0.6 and the “fold change (FC)” value [3] was 0.8.

With `Clc1ccccc1C(c1ccccc1)(c1ccccc1)n1ccnc1` [CLOTRIMAZOLE] the “fold change (FC)” value [4] was 0.9 and the “fold change (FC)” value [5] was 1.1.

With `CNC(=C[N+](=O)[O-])NCCSCc1ccc(CN(C)C)o1` [RANITIDINE] the FC [6] was 1, the “fold change (FC)” value [7] was 3.3 and the “fold change (FC)” value [8] was 3.8.

In the case of `CC(C)(O)c1ccccc1CC[C@@H](SCC1(CC(=O)O)CC1)c1cccc(/C=C/c2ccc3ccc(Cl)cc3n2)c1` [MONTELUKAST], the “fold change (FC)” value [9] is reported as 1.2, the “fold change (FC)” value [10] is reported as 0.5 and the “fold change (FC)” value [11] is reported as 0.7.

`OC(CCN1CCCCC1)(c1ccccc1)C1CC2C=CC1C2` (stereo unspecified) [BIPERIDEN] was tested, and the “fold change (FC)” value [12] was 1.6 and the “fold change (FC)” value [13] was 3.6.

In the case of `CC(C)NNC(=O)c1ccncc1` [IPRONIAZID], the FC [6] is reported as 1, the “fold change (FC)” value [14] is reported as 2.2 and the “fold change (FC)” value [15] is reported as 2.6.

With `CN(C)[C@@H]1C(O)=C(C(N)=O)C(=O)[C@@]2(O)C(O)=C3C(=O)c4c(O)cccc4[C@@](C)(O)[C@H]3C[C@@H]12` [TETRACYCLINE] the “fold change (FC)” value [16] was 2.9 and the “fold change (FC)” value [17] was 2.5.

In the case of `Fc1ccc([C@@H]2CCNC[C@H]2COc2ccc3c(c2)OCO3)cc1` [PAROXETINE], the “fold change (FC)” value [18] is reported as 0.6 and the “fold change (FC)” value [19] is reported as 0.4.

In the case of `CN(C)CCCN1c2ccccc2CCc2ccccc21` [IMIPRAMINE], the “fold change (FC)” value [20] is reported as 0.3, the “fold change (FC)” value [21] is reported as 0.2 and the “fold change (FC)” value [22] is reported as 0.7.

In the case of `CNCCCN1c2ccccc2CCc2ccccc21` [DESIPRAMINE], the “fold change (FC)” value [23] is reported as 0.7, the “fold change (FC)” value [24] is reported as 0.7 and the “fold change (FC)” value [25] is reported as 0.7.

With `CN(C)CCC(c1ccc(Br)cc1)c1ccccn1` (stereo unspecified) [BROMPHENIRAMINE] the FC [6] was 1, the “fold change (FC)” value [26] was 2 and the “fold change (FC)” value [27] was 43.

For `CC(C)OC(=O)C(C)(C)Oc1ccc(C(=O)c2ccc(Cl)cc2)cc1` [FENOFIBRATE], the “fold change (FC)” value [28] was 2.9, the “fold change (FC)” value [29] was 0.5 and the “fold change (FC)” value [23] was 0.8.

With `Cl.Nc1ccc(/N=N/c2ccccc2)c(N)n1` [PHENAZOPYRIDINE HYDROCHLORIDE] the FC [6] was 1, the “fold change (FC)” value [30] was 4.3 and the “fold change (FC)” value [3] was 17.

For `C=C(CC)C(=O)c1ccc(OCC(=O)O)c(Cl)c1Cl` [ETHACRYNIC ACID], the “fold change (FC)” value [31] was 2.7, the “fold change (FC)” value [32] was 0.7 and the FC [33] was 3.7.

For `CN(C)CCC(c1ccc(Cl)cc1)c1ccccn1` (stereo unspecified) [CHLORPHENIRAMINE], the FC [6] was 1, the FC [34] was 1 and the “fold change (FC)” value [35] was 33.6.

In the case of `O=C(COc1ccc(Cl)cc1)N1CCN(Cc2ccc3c(c2)OCO3)CC1` [FIPEXIDE], the FC [6] is reported as 0.4, the “fold change (FC)” value [36] is reported as 0.8 and the “fold change (FC)” value [37] is reported as 0.6.

With `O=c1n(CCCN2CCN(c3cccc(Cl)c3)CC2)nc2ccccn12` [TRAZODONE] the FC [6] was 1, the “fold change (FC)” value [38] was 34.4 and the “fold change (FC)” value [39] was 23.2.

With `CNCCC(Oc1ccc(C(F)(F)F)cc1)c1ccccc1` (stereo unspecified) [FLUOXETINE] the “fold change (FC)” value [40] was 0.7, the “fold change (FC)” value [41] was 0.7 and the “fold change (FC)” value [42] was 0.6.

`N[C@@H]1[C@H]2CN(c3nc4c(cc3F)c(=O)c(C(=O)O)cn4-c3ccc(F)cc3F)C[C@@H]12` [TROVAFLOXACIN] was tested, and the FC [6] was 1, the “fold change (FC)” value [43] was 1.1 and the FC [34] was 1.

In the case of `Cc1nc(-c2ccc(OCC(C)C)c(C#N)c2)sc1C(=O)O` [FEBUXOSTAT], the FC [6] is reported as 1, the “fold change (FC)” value [44] is reported as 2.1 and the “fold change (FC)” value [45] is reported as 1.2.
